In patent US12522614B2, “Topical phosphoinositide 3-kinase inhibitors” (VENTHERA, INC., priority 2019, dated 2026):
pIC50: −log10 of the molar value. Each block holds one compound with its values, some of them ahead of it.

How the values were obtained:
PI3Kg (p110g) = biological target: T1, PI3Kg (p110g) (Homo sapiens, UniProt P48736); experiment: Lipid kinase inhibitory activity, ADP-Glo; type: biochemical; conditions: γ
T1 construct: purchased Reaction Biology Corporation (RBC)
Experimental: (§1) Lipid kinases: Lipid kinases from Reaction Biology Corporation (RBC) in ADP-Glo format were used.
(§2) Assay Description: The kinase reactions utilized ATP and produced ADP as a byproduct. The ADP production was quantified by ADP-Glo luminescence detection. This assay was a 3-step reaction. First, the kinase reaction with lipid substrate was carried out in the presence of ATP, and the reaction was quenched and depleted remaining ATP with ADP-Glo™ reagent, and then finally ADP was converted to ATP which was measured using a luciferase/luciferin reaction.
(§3) Assay Procedure: The assay was performed according to the steps as follows: • 1. Preparing substrate in freshly prepared reaction buffer; • 2. Delivering kinase into the substrate solution and gently mixing; • 3. Delivering compounds in […] into the kinase reaction mixture by Acoustic technology (Echo550; nanoliter range), incubating for 20 minutes at room temperature; • 4. Delivering ATP into the reaction mixture to initiate the reaction; • 5. Incubating for 30 minutes at 30° C.; • 6. Quenching the reaction with ADP-Glo reagent and incubating for 40 minutes; • 7. Adding Detection Mixture and incubating for 30 minutes; and • 8. Measuring luminescence.
(§4) Data Analysis: The luminescence was converted into μM ADP production based on ADP standard curves. The nonlinear regression to obtain the standard curve and IC50 values were performed using Graphpad Prism software.

[1] = biological target: T2, PI3K (p110a(H1047R)/p85a) (Homo sapiens, UniProt P42336, H1047R); experiment: Lipid kinase inhibitory activity, ADP-Glo; type: biochemical; conditions: α H1047R
T2 construct: purchased Reaction Biology Corporation (RBC)
T2 sequence (P42336 whole entry H1047R): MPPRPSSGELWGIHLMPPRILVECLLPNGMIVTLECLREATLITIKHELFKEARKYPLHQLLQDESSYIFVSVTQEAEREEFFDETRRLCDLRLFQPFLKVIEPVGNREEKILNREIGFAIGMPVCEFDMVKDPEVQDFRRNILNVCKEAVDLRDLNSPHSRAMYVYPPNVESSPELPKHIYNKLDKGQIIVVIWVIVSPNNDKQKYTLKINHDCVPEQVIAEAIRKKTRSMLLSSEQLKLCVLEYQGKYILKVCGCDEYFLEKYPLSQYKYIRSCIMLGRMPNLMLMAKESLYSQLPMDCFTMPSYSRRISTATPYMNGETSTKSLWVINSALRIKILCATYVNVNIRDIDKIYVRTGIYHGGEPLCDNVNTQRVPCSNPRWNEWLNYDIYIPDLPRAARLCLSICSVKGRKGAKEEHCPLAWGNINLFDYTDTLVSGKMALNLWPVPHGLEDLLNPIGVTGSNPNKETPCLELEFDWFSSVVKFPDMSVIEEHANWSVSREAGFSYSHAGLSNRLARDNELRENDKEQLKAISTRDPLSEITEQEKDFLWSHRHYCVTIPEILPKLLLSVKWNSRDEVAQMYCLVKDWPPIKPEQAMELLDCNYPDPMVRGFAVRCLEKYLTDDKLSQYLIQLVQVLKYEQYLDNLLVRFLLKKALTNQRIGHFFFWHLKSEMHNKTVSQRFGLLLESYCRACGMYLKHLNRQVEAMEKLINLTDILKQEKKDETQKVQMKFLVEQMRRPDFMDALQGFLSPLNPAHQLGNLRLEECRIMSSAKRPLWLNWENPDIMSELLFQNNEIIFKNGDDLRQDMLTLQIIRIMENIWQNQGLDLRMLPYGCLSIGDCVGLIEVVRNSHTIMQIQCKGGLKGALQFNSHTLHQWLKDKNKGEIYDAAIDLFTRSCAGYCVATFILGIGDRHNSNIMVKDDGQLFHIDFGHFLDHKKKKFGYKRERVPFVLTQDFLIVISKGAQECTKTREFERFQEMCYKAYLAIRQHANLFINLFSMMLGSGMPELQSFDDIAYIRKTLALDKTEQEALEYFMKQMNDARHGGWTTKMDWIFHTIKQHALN
T2 sequence (P27986 whole entry partner): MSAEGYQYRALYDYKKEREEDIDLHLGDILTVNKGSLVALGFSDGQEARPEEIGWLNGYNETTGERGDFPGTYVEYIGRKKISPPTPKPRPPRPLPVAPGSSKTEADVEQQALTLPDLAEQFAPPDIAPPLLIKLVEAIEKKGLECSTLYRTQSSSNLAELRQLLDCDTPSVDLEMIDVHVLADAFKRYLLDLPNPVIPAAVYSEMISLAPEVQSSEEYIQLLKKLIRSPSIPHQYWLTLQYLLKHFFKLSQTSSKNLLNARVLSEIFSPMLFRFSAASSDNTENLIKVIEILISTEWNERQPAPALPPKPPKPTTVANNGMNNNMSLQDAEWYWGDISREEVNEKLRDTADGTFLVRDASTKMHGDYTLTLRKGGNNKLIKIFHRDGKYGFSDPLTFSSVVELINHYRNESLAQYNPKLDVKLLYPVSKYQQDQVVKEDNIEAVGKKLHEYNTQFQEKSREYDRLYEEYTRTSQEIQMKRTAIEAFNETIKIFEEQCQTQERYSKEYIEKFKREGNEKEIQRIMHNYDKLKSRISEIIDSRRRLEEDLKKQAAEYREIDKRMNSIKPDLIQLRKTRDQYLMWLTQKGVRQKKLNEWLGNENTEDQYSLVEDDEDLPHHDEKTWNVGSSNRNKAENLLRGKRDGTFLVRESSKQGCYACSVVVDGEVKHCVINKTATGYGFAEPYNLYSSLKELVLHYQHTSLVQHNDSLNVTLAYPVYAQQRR
Experimental: as §1, §2, §3, §4

PI3Kb (p110b/p85a) = biological target: T3, PI3Kb (p110b/p85a) (Homo sapiens, UniProt P42338); experiment: Lipid kinase inhibitory activity, ADP-Glo; type: biochemical; conditions: β
T3 construct: purchased Reaction Biology Corporation (RBC)
Experimental: as §1, §2, §3, §4

PI3Kd (p110d/p85a) = biological target: T4, PI3Kd (p110d/p85a) (Homo sapiens, UniProt O00329); experiment: Lipid kinase inhibitory activity, ADP-Glo; type: biochemical; conditions: δ
T4 construct: purchased Reaction Biology Corporation (RBC)
T4 sequence (O00329 whole entry): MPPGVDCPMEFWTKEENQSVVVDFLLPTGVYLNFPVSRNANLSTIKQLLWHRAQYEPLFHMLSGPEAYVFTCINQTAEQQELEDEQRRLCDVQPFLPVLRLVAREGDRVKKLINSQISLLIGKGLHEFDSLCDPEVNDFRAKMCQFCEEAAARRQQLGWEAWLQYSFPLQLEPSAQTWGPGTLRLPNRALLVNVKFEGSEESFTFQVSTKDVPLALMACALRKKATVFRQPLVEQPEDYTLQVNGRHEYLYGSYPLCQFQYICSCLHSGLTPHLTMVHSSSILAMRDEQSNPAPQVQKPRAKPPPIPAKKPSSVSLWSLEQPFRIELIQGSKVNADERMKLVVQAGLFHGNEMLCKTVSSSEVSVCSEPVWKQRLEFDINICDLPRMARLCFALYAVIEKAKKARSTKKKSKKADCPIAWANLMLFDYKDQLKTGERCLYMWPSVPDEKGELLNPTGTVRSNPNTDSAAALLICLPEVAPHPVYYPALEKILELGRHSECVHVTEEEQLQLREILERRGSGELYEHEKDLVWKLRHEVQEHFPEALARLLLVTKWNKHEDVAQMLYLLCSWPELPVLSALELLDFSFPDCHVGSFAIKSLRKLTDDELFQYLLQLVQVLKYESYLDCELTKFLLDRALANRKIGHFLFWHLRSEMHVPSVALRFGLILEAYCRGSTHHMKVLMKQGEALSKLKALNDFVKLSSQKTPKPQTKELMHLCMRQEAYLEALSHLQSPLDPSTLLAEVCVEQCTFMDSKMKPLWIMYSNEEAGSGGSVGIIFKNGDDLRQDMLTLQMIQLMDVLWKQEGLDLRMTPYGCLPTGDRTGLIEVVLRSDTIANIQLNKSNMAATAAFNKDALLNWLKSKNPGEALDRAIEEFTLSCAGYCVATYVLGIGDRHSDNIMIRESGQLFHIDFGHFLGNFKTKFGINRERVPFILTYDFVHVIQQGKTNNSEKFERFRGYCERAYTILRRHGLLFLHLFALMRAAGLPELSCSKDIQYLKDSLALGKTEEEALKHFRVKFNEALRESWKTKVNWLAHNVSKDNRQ
T4 sequence (P27986 whole entry partner): as the sequence (P27986 whole entry partner) above
Experimental: as §1, §2, §3, §4

PI3K (p110a(E542K)/p85a) = biological target: T5, PI3K (p110a(E542K)/p85a) (Homo sapiens, UniProt P42336, E542K); experiment: Lipid kinase inhibitory activity, ADP-Glo; type: biochemical; conditions: α E542K
T5 construct: purchased Reaction Biology Corporation (RBC)
T5 sequence (P42336 whole entry E542K): as the sequence (P42336 whole entry H1047R) above, with E542K, R1047H counted along it
T5 sequence (P27986 whole entry partner): as the sequence (P27986 whole entry partner) above
Experimental: as §1, §2, §3, §4

PI3Ka (p110a/p85a) = biological target: T6, PI3Ka (p110a/p85a) (Homo sapiens, UniProt P42336); experiment: Lipid kinase inhibitory activity, ADP-Glo; type: biochemical; conditions: α
T6 construct: purchased Reaction Biology Corporation (RBC)
T6 sequence (P42336 whole entry): as the sequence (P42336 whole entry H1047R) above, with R1047H counted along it
T6 sequence (P27986 whole entry partner): as the sequence (P27986 whole entry partner) above
Experimental: as §1, §2, §3, §4

PI3K (p110a(E545K)/p85a) = biological target: T7, PI3K (p110a(E545K)/p85a) (Homo sapiens, UniProt P42336, E545K); experiment: Lipid kinase inhibitory activity, ADP-Glo; type: biochemical; conditions: α E545K
T7 construct: purchased Reaction Biology Corporation (RBC)
T7 sequence (P42336 whole entry E545K): as the sequence (P42336 whole entry H1047R) above, with E545K, R1047H counted along it
T7 sequence (P27986 whole entry partner): as the sequence (P27986 whole entry partner) above
Experimental: as §1, §2, §3, §4

MTOR/FRAP1 = biological target: T8, MTOR/FRAP1 (Homo sapiens, UniProt P42345); experiment: Lipid kinase inhibitory activity, ADP-Glo; type: biochemical
T8 construct: purchased Reaction Biology Corporation (RBC)
Experimental: as §1, §2, §3, §4

cancer cell = conditions: U.S. Pat. No. 6,838,457; cited from earlier work
[2] = In vitro human skin permeation study of topical gel formulations (Franz diffusion cells); type: in vitro ADME; conditions: human skin; for Cumulative permeation (intact compound): Study-4, saturated gel; for Cumulative permeation, Compound 1.012 / Hydrolysis of Cmpd. 1.012 to MTPP: Study-6, gel saturated at 58 mg/mL
PI3K = conditions: U.S. Pat. No. 6,838,457; cited from earlier work
[3] = In vitro human skin permeation study of topical gel formulations (Franz diffusion cells); type: in vitro ADME; conditions: saturated gel formulations, skin flux experiments
Text: The gel formulation of Example 8 was used as the donor phase to determine the permeation of Compound 1.002 through human skin and its effectiveness as a topical application. Three skin donors and three diffusion cells (for each donor) per formulation were used in the in vitro skin permeation experiments. Split thickness dermatomed (approximately at […] thickness) human cadaver skin, supplied by New York Firefighters Skin Bank, NY, was used to determine the permeation rate of the tested compound (i.e., the drug) in vitro. All in vitro skin permeation studies were conducted using the Vertical Diffusion Cells assembly with consoles (Model FDC-6), and heating controllers (Logan Instruments Inc. Somerset, NJ). Each assembly consisted of six vertical, jacketed (37° C.±0.5° C.) 12-mL Franz diffusion cells with magnetic stirrer and 1.767 cm^2 diffusion area.
(§5) Skin flux studies were run for a period of 48 hours. At predetermined intervals (2, 4, 8, 24 and 48 hours) after starting the experiment, the entire contents of the receiver compartment were collected for determining concentrations of the drug by HPLC. The receiver compartment was refilled with fresh receiver medium. The receiver medium was pH 7.4 phosphate buffer with 0.5 mg/ml of Oleath 20 with the saturation concentration of the drug in the receptor medium being 0.152 mg/ml. This solubility of the drug in the receiver medium was enough to ensure sink conditions throughout each collection interval.
Samples of the receptor phase were obtained at 2, 4, 8, 12, 24 and 48 h and concentrations of Compound 1.002 and 3-(4-morpholinothieno(3,2-d)pyrimidin-2-yl)phenol (metabolite of Compound 1.002, abbreviated as MTPP) were determined using a validated HPLC method. The metabolism of Compound 1.002 to MTPP takes place in the human skin by esterase enzymes.
HPLC method: Column—Gemini C-18 4.6×150 mm, 5 μm particle size; Mobile Phase—water:acetonitrile 25:75 containing 0.1% TFA; Flow Rate—1 mL/min; Detection—274 nm; Column Temperature—40° C.; and Run Time—10 min. The retention times for MTPP and Compound 1.002 were 3.9 and 7.2 minutes, respectively.
The skin flux of drugs and cumulative amount of drugs permeated (sum of MTPP and Compound 1.002) for a period of 48 hours were calculated and are shown in Table 3. FIG. 3 represents a plot of Cumulative amount permeated versus time.

[4] = Accelerated stability study of topical gel formulations at 80° C.; type: physicochemical; conditions: gel formulation (Table 2 excipients), 80° C.
Experimental: Topical gel formulations were prepared using excipients as shown in Table 2 according to Example 8, in which Compounds 1.002, 1.012, and 1.006 were used as the active ingredient, respectively. These gel formulations were subjected to stability study at 80° C. for 10 days. Stability under the condition of at 80° C. for 10 days is expected to be approximately equivalent to the stability for three (3) years at room temperature. A relative purity of the tested compound after being exposed for 5 days and 10 days at 80° C. was determined by HPLC, as compared to its initial purity (at day 0).
The values shown in the table are percent hydrolysis of the respective compounds to the parent compound MTPP.
Topical gel formulations of Compound 1.002 were prepared using excipients as shown in Table 2 according to Example 8, in which the content of oleic acid varied at 1%, 2%, 5%, and 10%, respectively. These gel formulations were subjected to stability study at 80° C. for 10 days, which is expected to be approximately equivalent to the stability for three (3) years at room temperature. A purity of the tested compound on day 0, 5, 7, and 10 at 80° C. was determined by HPLC. The detected impurity of the tested compound appears to be the hydrolysis product, as MTPP. Table 17 represents stability data of Compound 1.002 in topical formulations having oleic acid at various contents.
Gel formulations of Example 17 were subjected to stability study at 80° C. for 10 days. Stability under the condition of at 80° C. for 10 days is expected to be approximately equivalent to the stability for three (3) years at room temperature. A relative purity of Compound 1.002 after being exposed for 5 days and 10 days at 80° C. was determined by HPLC, as compared to its initial purity (at day 0).

[5] = Saturation concentration in formulation or receiver medium; type: physicochemical; conditions: gel formulation with excipients of Example 8 (Table 2)
Experimental: The liquid excipients, i.e. DMSO, oleic acid, Transcutol® P, and dipropylene glycol were mixed in a 20-mL vial, by vortex agitation. The active ingredient, a compound of formula (I), for example Compound 1.002 was then added, and the vial content was sonicated for 10 minutes to dissolve the compound. […] Hydroxylpropyl cellulose (HPC) was added, and the vial was agitated by vortex for another ten minutes to obtain the gel formulation. The viscosity of the clear gel was measured to be in a range of about 7,000 to 10,000 centipoise (cp).
as §5

T1 sequence (P48736 whole entry): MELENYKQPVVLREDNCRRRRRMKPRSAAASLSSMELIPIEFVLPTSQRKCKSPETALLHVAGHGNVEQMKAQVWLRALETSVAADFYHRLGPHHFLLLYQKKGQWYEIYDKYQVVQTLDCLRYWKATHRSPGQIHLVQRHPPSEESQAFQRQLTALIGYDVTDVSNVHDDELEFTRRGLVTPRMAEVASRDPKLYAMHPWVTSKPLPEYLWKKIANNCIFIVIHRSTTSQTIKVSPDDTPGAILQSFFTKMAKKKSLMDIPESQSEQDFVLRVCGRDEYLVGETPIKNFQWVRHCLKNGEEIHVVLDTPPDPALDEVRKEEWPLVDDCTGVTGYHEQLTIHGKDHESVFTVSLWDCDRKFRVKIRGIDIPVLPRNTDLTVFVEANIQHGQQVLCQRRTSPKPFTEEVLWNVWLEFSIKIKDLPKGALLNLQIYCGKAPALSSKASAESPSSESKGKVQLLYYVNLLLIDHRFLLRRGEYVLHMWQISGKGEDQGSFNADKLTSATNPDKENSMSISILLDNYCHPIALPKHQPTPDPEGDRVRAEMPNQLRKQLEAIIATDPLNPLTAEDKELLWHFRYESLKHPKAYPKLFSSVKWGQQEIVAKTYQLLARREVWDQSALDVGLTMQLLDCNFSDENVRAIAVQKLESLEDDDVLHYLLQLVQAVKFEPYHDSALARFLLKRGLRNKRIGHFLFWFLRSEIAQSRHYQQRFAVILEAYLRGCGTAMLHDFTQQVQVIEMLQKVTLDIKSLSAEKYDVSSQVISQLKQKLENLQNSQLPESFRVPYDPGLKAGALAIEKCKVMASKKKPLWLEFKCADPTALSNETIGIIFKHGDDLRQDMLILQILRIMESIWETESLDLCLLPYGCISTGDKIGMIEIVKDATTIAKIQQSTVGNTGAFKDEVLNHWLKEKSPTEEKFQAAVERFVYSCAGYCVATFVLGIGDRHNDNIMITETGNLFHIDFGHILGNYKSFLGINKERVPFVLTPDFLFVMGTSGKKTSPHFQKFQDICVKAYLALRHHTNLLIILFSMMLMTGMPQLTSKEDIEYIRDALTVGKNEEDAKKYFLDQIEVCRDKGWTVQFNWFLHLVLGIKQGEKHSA

- pIC50 (PI3Kg (p110g)): 7.05
- pIC50 [1]: 8.14
- pIC50 (PI3Kb (p110b/p85a)): 7.42
- pIC50 (PI3Kd (p110d/p85a)): 7.72
- pIC50 (PI3K (p110a(E542K)/p85a)): 8.25
- pIC50 (PI3Ka (p110a/p85a)): 8.28
- pIC50 (PI3K (p110a(E545K)/p85a)): 8.20
- pIC50 (MTOR/FRAP1): 6.66
- Cumulative permeation (intact compound) ([2]; 2 h): 0.23 μg/cm^2
- Cumulative permeation (intact compound) ([2]; 4 h): 4.74 μg/cm^2
- Cumulative permeation (intact compound) ([2]; 8 h): 15.85 μg/cm^2
- Cumulative permeation (intact compound) ([2]; 24 h): 43.32 μg/cm^2
- Cumulative permeation (intact compound) ([2]; 48 h): 70.13 μg/cm^2
- Metabolism to MTPP during permeation through human skin [3]: permeated as its intact compound
Structure (SMILES): Oc1cccc(-c2nc(N3CCOCC3)c3sccc3n2)c1 [MTPP, 3-(4-morpholinothieno(3,2-d)pyrimidin-2-yl)phenol, reference compound]
- Cancer cell growth inhibiting activity (cancer cell): cancer cell growth inhibiting activity
- PI3K inhibiting activity (PI3K): excellent PI3K inhibiting activity

- Cumulative permeation, Compound 1.012 ([2]; 2 h): 0.0 μg/cm^2
- Hydrolysis of Cmpd. 1.012 to MTPP ([2]; 2 h): 100%
- Cumulative permeation, Compound 1.012 ([2]; 4 h): 0.0 μg/cm^2
- Hydrolysis of Cmpd. 1.012 to MTPP ([2]; 4 h): 100%
- Cumulative permeation, Compound 1.012 ([2]; 8 h): 0.0 μg/cm^2
- Hydrolysis of Cmpd. 1.012 to MTPP ([2]; 8 h): 100%
- Cumulative permeation, Compound 1.012 ([2]; 24 h): 0.0 μg/cm^2
- Hydrolysis of Cmpd. 1.012 to MTPP ([2]; 24 h): 100%
- Cumulative permeation, Compound 1.012 ([2]; 48 h): 0.0 μg/cm^2
- Hydrolysis of Cmpd. 1.012 to MTPP ([2]; 48 h): 100%
- Relative Purity ([4]; Day 0): 100%
- Relative Purity ([4]; Day 5): 99%
- Relative Purity ([4]; Day 10): 96%
- Saturation concentration in the gel formulation [5]: 58 mg/mL
- Metabolism to MTPP during permeation through human skin [3]: completely metabolize into MTPP
Structure (SMILES): CCOC(=O)Oc1cccc(-c2nc(N3CCOCC3)c3sccc3n2)c1 [Compound 1.012, Ethyl (3-(4-morpholinothieno[3,2-d]pyrimidin-2-yl)phenyl) Carbonate]
